The results in this text go back to ChEMBL document CHEMBL4406879, “A mouse model-based screening platform for the identification of immune activating compounds such as natural products for novel cancer immunotherapies” (Bioorg Med Chem, 2019).

Calls of active or inactive are those of the source. The calls are words filed in the database; no cut-off is given here.

Series [1] relates to Bone marrow cell. As to the kind of experiment: Cytotoxicity against GM-CSF-cultured mouse cDC-rich bone marrow cells assessed as cell viability at 1 to 10 uM incubated for 24 hrs by MTT assay. It is filed as cell-based. Background: Tetrazolium assays rely on reduction of a dye to a coloured formazan, in cell work by metabolically active cells.
Series [2] deals with Bone marrow cell. As to the kind of experiment: Cytotoxicity against Flt3L-cultured mouse pDC-rich bone marrow cells assessed as cell viability at 1 to 10 uM incubated for 24 hrs by MTT assay. It is filed as cell-based.
For series [3], the system named is Bone marrow cell. The series is described as follows: Cytotoxicity against M-CSF-cultured mouse macrophage-rich bone marrow cells assessed as cell viability at 1 to 10 uM incubated for 24 hrs by MTT assay. It is filed as cell-based.
Series [4] deals with Dendritic cell. The series is described as follows: Immunostimulatory activity in GM-CSF-cultured bone marrow-derived dendritic cells isolated from get40 cytokine reporter mouse model assessed as induction of IL12p40 production at 0.1 to 10 uM incubated for 16 hrs in presence of CpG 2216 by flow cytometry relative to control. Type of series: functional. A general note: In flow cytometry, cells or beads pass a laser one at a time.

The test system of series [5] is Dendritic cell. The series is described as follows: Immunostimulatory activity in GM-CSF-cultured bone marrow-derived dendritic cells isolated from get40 cytokine reporter mouse model assessed as induction of IL12p40 production at 0.1 to 10 uM incubated for 16 hrs by flow cytometry relative to control. It is filed as functional.
The species entered for series [6] is Mus musculus. As to the kind of experiment: Immunostimulatory activity in CD4-positive T cells isolated from OVA-specific OT-II TCR transgenic mouse model assessed as T cell activation by measuring increase in IL-2 production at 1 uM compound incubated with GM-CSF cultured mouse bone marrow cells in presence of CpG 2216 for 24 hrs followed by addition of isolated CD4+ T cells and further incubation for 5 days by ELISA. It is filed as functional, cell-based. Background: An ELISA detects its analyte on a solid surface through an enzyme-linked reagent.

The subject of series [7] is Dendritic cell. As to the kind of experiment: Immunostimulatory activity in GM-CSF-cultured bone marrow-derived dendritic cells isolated from get40 cytokine reporter mouse model assessed as induction of IL12p40 production at 0.1 to 10 uM incubated for 16 hrs in presence of LPS by flow cytometry relative to control. It is filed as functional.
A further series relates to Jurkat. As to the kind of experiment: Cytotoxicity against human Jurkat cells. It is filed as functional, cell-based.
A further series concerns Ramos. The series is described as follows: Cytotoxicity against human Ramos cells. Type of series: functional, cell-based.
The species named for series [8] is Mus musculus. The series is described as follows: Immunostimulatory activity in CD4-positive T cells isolated from OVA-specific OT-II TCR transgenic mouse model assessed as T cell activation by measuring increase in IL-2 production at 10 uM compound incubated with GM-CSF cultured mouse bone marrow cells for 24 hrs followed by addition of isolated CD4+ T cells and further incubation for 5 days by ELISA. Type of series: functional, cell-based.

The test system of series [9] is Mycobacterium tuberculosis. As to the kind of experiment: Antibacterial activity against Mycobacterium tuberculosis. It is filed as functional, organism-based.

As to `C=C1[C@@H](C)[C@H]2[C@H](Cc3ccccc3)NC(=O)[C@]23[C@H](OC(C)=O)/C=C/[C@@H](C)C[C@@H](C)C/C=C/[C@H]3[C@@H]1O`, the Activity entry in the series with Bone marrow cell [1], in the series with Bone marrow cell [2] and with Bone marrow cell [3] was “Non-Toxic” in each case. Moreover, the “fold change (FC)” value in the series on Dendritic cell [4], with Dendritic cell [5] and in the series on Dendritic cell [7] was 2 each time. Besides, the outcome in the series filed under Mus musculus [6], in the series on Jurkat and in the series on Ramos was Active.
For the molecule `[O-][n+]1ccc2c([nH]c3ccccc32)c1C1=C[C@@]2(O)CC/C=C\CCCCN3CC[C@@H]1[C@]1(CC/C=C\CCCCN[C@H]12)C3`, the Activity entry in the series on Bone marrow cell [1], with Bone marrow cell [2] and in the series with Bone marrow cell [3] was “Non-Toxic” in each case. For the same molecule, the “fold change (FC)” value in the series with Dendritic cell [4], in the series on Dendritic cell [5] and with Dendritic cell [7] was 2 in each case. Besides, the result in the series filed under Mus musculus [8] was inactive. Also, the result (in the series on Jurkat; in the series on Ramos; in series [9]) was Active.
In the case of `C=C1[C@@H](C)[C@H]2[C@H](Cc3ccccc3)NC(=O)[C@]23[C@H](OC(C)=O)/C=C/[C@@](C)(O)C(=O)[C@@H](C)C/C=C/[C@H]3[C@@H]1O` [CYTOCHALASIN D], the Activity result in the series with Bone marrow cell [1], with Bone marrow cell [2] and with Bone marrow cell [3] was “Non-Toxic” throughout. For the same molecule, the “fold change (FC)” value in the series with Dendritic cell [4], with Dendritic cell [5] and in the series on Dendritic cell [7] was 2 throughout. For the same molecule, the result in the series listed under Mus musculus [6], in the series on Jurkat and in the series with Ramos was Active.
